{
  "source": "paper PMC9737391",
  "about": "“Trifluoromethylcinnamanilide Michael Acceptors for Treatment of Resistant Bacterial Infections” (International Journal of Molecular Sciences, 2022)",
  "origin": "cited, not measured here",
  "test_system": "NF-κB",
  "design": "method as in PMID 31835703",
  "conditions": "compared with prednisone; cited from earlier work",
  "data": [
    {"compound": "O=C(/C=C/c1ccccc1)Nc1cc(C(F)(F)F)ccc1Cl", "note": "[3g]", "values": [
      {"measurement": "anti-inflammatory potential (NF-κB inhibition)", "value": "comparable to that prednisone"}
    ]}
  ]
}
